One data set relates to Gram negative bacteria. As to conditions: cited from earlier work.
Data set [1] deals with human hepatocyte cell line (HepG2). As to conditions: 24 h.
Experimental: Cell counting kit-8 (Sigma, CCK-8) assays were performed to assess the effect of compounds on cell viability. The assay is based on the reduction of a water-soluble tetrazolium salt (WST-8) by cellular dehydrogenases to a formazan dye which can be detected spectroscopically. 96-well plates were seeded with the human hepatocyte cell line (HepG2) at approximately 8×10^3 cells per well in Eagle's Minimum Essential Medium (EMEM) with Earle's salts and sodium bicarbonate supplemented with 10% heat-inactivated foetal bovine serum 2 mM glutamine and 1% non-essential amino acids (NEAA). The following day serial dilutions of compounds (dissolved and diluted in DMSO) were added to the cells in duplicates. Control wells included an ‘untreated’ control where cells were grown in the presence of 1% DMSO and a ‘medium only’ control (plus 1% DMSO). After 24 hours CCK-8 reagent (10 μl) was added to each well and cell viability was assessed by measuring the absorbance at a wavelength of 450 nm after 2-3h hours. Only living cells can reduce the tetrazolium salts into coloured formazan products. Results were expressed as 50% growth inhibition (TD50) values compared to ‘untreated’ control.
In data set [2] the test system is S. aureus (Oxford strain). Nature of the data set: Growth assay for S. aureus (MIC). The data set is classed as cell-based. As to conditions: TSB, 37° C., 22-24 hours. How it is done: (§1) Stock solution of the test compounds (20 mg/ml) in dimethyl sulfoxide (DMSO) were serially diluted in DMSO and each diluted compound added in duplicate to a 96-well plate to a final DMSO concentration of 2% (v/v). An overnight culture of S. aureus (Oxford strain) grown in tryptic soy broth (TSB) was diluted to approximately 5×10^7 cfu/ml and 150 μl of this sample was added to each well of the 96-well plates. Control wells included an ‘untreated’ control with bacteria in TSB in the presence of 2% DMSO and a negative sample (containing 150p1 TSB growth media in the presence of 2% DMSO). Plates were incubated in a shaking incubator at 37° C. for 22-24 hours and bacterial growth assessed by absorbance at a wavelength of 595 nm. The minimum inhibitory concentration (MIC) was defined as the lowest concentration of compound that inhibited growth compared to the no-treatment control.

A further data set deals with E.coli (ATCC 25922). Nature of the data set: Growth assay variation, E. coli (MIC). Type of data set: cell-based. As to conditions: ATCC 25922, Luria broth, incubation without shaking. How it is done:
as §1
(§2) Klebsiella pneumoniae, Acinetobacter baumannnii or E.coli (ATCC 25922): use of 1/100 overnight dilution to set up assay, medium used: Luria broth (LB); incubation without shaking.

In data set [3] the test system is P.aeruginosa (ATCC 27853). As to the kind of experiment: Growth assay variation, P. aeruginosa (MIC). Type of data set: cell-based. As to conditions: ATCC 27853, CaMHB, incubation without shaking. How it is done:
as §1
P.aeruginosa (ATCC 27853): use of 1/100 overnight dilution to set up assay, medium used: Cation adjusted Mueller Hinton broth (CaMHB); incubation without shaking.

Another data set has as its system Klebsiella pneumoniae. As to the kind of experiment: Growth assay variation, Klebsiella pneumoniae (MIC). Particulars: Luria broth, incubation without shaking. Type of data set: cell-based. How it is done: as §1, §2

These results are taken from patent US20180360856A1, “ANTI-BACTERIAL COMPOUNDS” (Auspherix Limited, priority 2015, published 2018).

Turning to `CC[P](CC)(CC)=[Au][S][C@@H]1O[C@H](COC(C)=O)[C@@H](OC(C)=O)[C@H](OC(C)=O)[C@H]1OC(C)=O` [Auranofin], the “activity against the majority of Gram negative bacteria” value in the data set on Gram negative bacteria is listed as “not been shown to have any significant activity”.
In the case of `Cc1nnc([S][Au]=[P](C)(C)C)n1C` [Compound 1], the “HepG2 cell TD50” value in data set [1] was 2 µg/mL.
Still for that read-out and setting: in the case of `CNC(=O)C[S][Au]=[P](C)(C)C` [Compound 2] it was 6 µg/mL; in that of `CCOC(=O)CNC(=O)[C@H](C[S][Au]=[P](C)(C)C)NC(=O)CC[C@H](NC(C)=O)C(=O)OCC` [Compound 3], 32 µg/mL; in that of `C[P](C)(C)=[Au][S]c1ncco1` [Compound 4], 4 µg/mL.
On the same count and under the same terms, for `COc1ccc([S][Au]=[P](C)(C)C)cc1OC` [Compound 5] the value was 3 µg/mL.
`C[P](C)(C)=[Au][S]c1ccccc1C(=O)O` [Compound 6]: in data set [1], the “HepG2 cell TD50” value came out at 11.5 µg/mL.
The same measure, in the same setting: for `C[P](C)(C)=[Au][S]c1ncc[nH]1` [Compound 7] the value was 6 µg/mL; for `C[P](C)(C)=[Au][S]c1cccc(C(F)(F)F)c1` [Compound 8], 3 µg/mL; for `C[P](C)(C)=[Au][S]c1ccccc1C(F)(F)F` [Compound 9], 3 µg/mL.
On to `COc1cccc([S][Au]=[P](C)(C)C)c1` [Compound 10], for which the “HepG2 cell TD50” value in data set [1] was 2 µg/mL.
Still for that read-out and setting: for `C[P](C)(C)=[Au][S]c1ccc(S(C)(=O)=O)cc1` [Compound 11] the value was 2 µg/mL; for `CC[P](C)(C)=[Au][S]c1ncco1` [Compound 12], 5 µg/mL; for `C[P](C)(C)=[Au][S]c1ccc(C(F)(F)F)cn1` [Compound 13], 2.5 µg/mL.
The same measure, in the same setting: in the case of `C[P](C)(C)=[Au][S]c1cc(C(F)(F)F)ccn1` [Compound 14] it was 3 µg/mL.
Same read-out and setting: in the case of `C[P](C)(C)=[Au][S]c1nnn[nH]1` [Compound 15] it was 23 µg/mL; in that of `C[P](C)(C)=[Au][S]c1ccc(C(N)=O)cn1` [Compound 16], 17 µg/mL; in that of `COc1ccc([S][Au]=[P](C)(C)C)cc1` [Compound 17], 3.5 µg/mL.
Take `C[P](C)(C)=[Au][S]c1ccc(F)cc1C(=O)O` [Compound 18]: in data set [1], the “HepG2 cell TD50” value came out at 18 µg/mL.
The same measure, in the same setting: for `CC(=O)Oc1ccc([S][Au]=[P](C)(C)C)cc1OC(C)=O` [Compound 23] the value was 2 µg/mL.
On the same count and under the same terms, in the case of `C[P](C)(C)=[Au][S]c1cccc(C(=O)O)c1` [Compound 25] it was 22 µg/mL; in that of `C[P](C)(C)=[Au][S]c1ccc(C(=O)O)cc1` [Compound 26], 13 µg/mL.
Same read-out and setting: for `C[P]1(=[Au][S]c2ccccc2C(=O)O)CCCCC1` [Compound 27] the value was 22 µg/mL; for `C[P]1(=[Au][S]c2ccccc2C(=O)O)CCCC1` [Compound 28], 11 µg/mL; for `C[P]1(=[Au][S]c2ccccc2C(=O)O)CCOCC1` [Compound 29], 35 µg/mL.
Take `C[P]1(=[Au][S]c2ccc(F)cc2C(=O)O)CCCCC1` [Compound 30]: the “HepG2 cell TD50” value in data set [1] was 19 µg/mL.
On to `C[P]1(=[Au][S]c2nnn[nH]2)CCCCC1` [Compound 31], for which, in data set [1], the “HepG2 cell TD50” value came out at 45 µg/mL.
Same read-out and setting: in the case of `C[P]1(=[Au][S]c2nnn[nH]2)CCCC1` [Compound 32] it was 11 µg/mL; in that of `Cn1nnnc1C[S][Au]=[P](C)(C)C` [Compound 33], 4 µg/mL.
Same read-out and setting: for `C[P](C)(C)=[Au][S]c1cccc(S(C)(=O)=O)c1` [Compound 34] the value was 1 µg/mL.
With `C[P](C)(C)=[Au][S]C1CCC(F)(F)CC1` [Compound 35], in data set [1], the “HepG2 cell TD50” value was 4 µg/mL.
With `CC[P](C)(C)=[Au][S]c1ccccc1C(=O)O` [Compound 36], the “S. aureus MIC” value in data set [2] is <0/8.
Consider `CP1CCS(=O)(=O)CC1.[Cl][Au]` [Compound I-44, 4-Methyl-[1,4]sulfonylphosphinane gold(I) chloride], for which, in the data set with E.coli (ATCC 25922), the “E. coli MIC” value was in the range of 25 to 100 µg/mL. In data set [2], the “S. aureus MIC” value was in the range of 6.3 to 25 µg/mL. The “P. aeruginosa MIC” value in data set [3] fell in the range of 6.3 to 50 µg/mL. Moreover, the “K. pneumoniae MIC” value with Klebsiella pneumoniae is 50 to 100 µg/mL.
The corresponding values for “Dimethyl[2-(methyl)oxazole]phosphine gold(I) chloride [Compound I-50]” are 6.3 to 12.5 µg/mL, 1.6 to 3.1 µg/mL, 12.5 to 25 µg/mL and 12.5 to 25 µg/mL.
The corresponding values for “Dimethyl[2-(methyl)thiazole]phosphine gold(I) chloride [Compound I-49]” are 6.3 to 12.5 µg/mL, at most 0.8 to 1.6 µg/mL, 25 µg/mL and 12.5 to 25 µg/mL.
